Assay results from patent publication US7863262B2, “Nitroxyl progenitors in the treatment of heart failure” (Johns Hopkins University, priority 2002, dated 2011).
“Also recorded” adds a separate entry of the source. Ends that are not written are not given here.

What was measured:
[1] = test system: conscious dogs experiencing congestive heart failure (CHF); type: in vivo, mongrel dogs; conditions: for cardiac load as measured by Edv (preload) and Ea (afterload): FIG. 1
[2] = test system: rat renal tissue; conditions: given during ischemia and 5 minutes before reperfusion; Takahira et al. 2001; cited from earlier work
[3] = test system: reperfused myocardium; conditions: anesthetized rabbits; given 5 minutes prior to reperfusion (after ischemia); Ma et al. 1999; cited from earlier work
[4] = Long-term infusion (3-4 hours of perfusion); type: in vivo
Experimental: In particular embodiments the HNO/NO^− donating compound is administered in the form of a pharmaceutical composition. A pharmaceutical composition comprising an effective amount of the HNO/NO^− donating compound as an active ingredient could be easily prepared by standard procedures well known in the art, with pharmaceutically acceptable non-toxic solvents and/or sterile carriers, if necessary. Such preparations are administered orally or in injectable form, or directly to myocardial tissue. In other embodiments the HNO/NO^− donor is administered without a pharmaceutical carrier. In particular embodiments the HNO/NO^− donor is administered by a short-term infusion, such as for 5 to 20 minutes. In other embodiments the HNO/NO^− donor is administered by a long-term infusion, such as from 3-4 hours.

[5] = test system: normal conscious dogs under beta-antagonist therapy with propranolol; type: in vivo; conditions: propranolol 2 milligrams/kg in bolus; normal subject
[6] = test system: CGRP receptors; test: CGRP receptor antagonism with CGRP8-37 in conscious dogs experiencing heart failure; type: in vivo, mongrel dogs; conditions: FIG. 6
Experimental: The diagnostic tests included Ees, DEDV, PRSW, tau, Pes, end diastolic pressure (Ped), end diastolic volume (Ved), and Ea.
To test the relation between the inotropic action of HNO/NO^− and calcitonin gene-related peptide (CGRP) signaling, CGRP receptors in mongrel dogs were antagonized using the selective antagonist CGRP8-37 (400 μg in 30 milliliters (ml) of saline bolus, then 2.6 μg/kg/min for 15 min). Plasma CGRP levels measurements were performed by sampling the blood of the dogs. Blood samples (2.5 ml) were withdrawn from arterial, venous, and coronary sinus catheters. After sampling, catheters were flushed with heparanized saline. Samples were centrifuged at 1600 times gravity (g) for 20 minutes at 4° Celsius (C). Plasma was then separated and stored at −20° C. until analysis. Plasma (0.5 ml) was used to extract CGRP by addition of 0.8 ml of ethanol. The mixture was centrifuged at 1600 g for 20 minutes. After removing the supernatant, the extracted samples were air dried at room temperature overnight and then stored at 4° C. Immediately prior to assay, dried samples were reconstituted with assay buffer following manufacturer's instructions (Peninsula Labs) and assayed for CGRP by radioimmunoassay (RIA). CGRP antiserum, code RAS 6012, was used. The dynamic assay range was 1-128 picograms (pg) per 300 microliters (μL) of sample. […]

For `[Na+].[Na+].[O-][N+]([O-])=NO` [Angeli's salt, sodium trioxodinitrate], the “cardiac load as measured by Edv (preload) and Ea (afterload)” value [1] is listed as “lowered left ventricular preload; also recorded: reduced the cardiac load”, the “neutrophil infiltration into renal tissue” value [2] is listed as “contributed to neutrophil infiltration into the tissue” and the myocardial ischemia/reperfusion injury [3] is listed as “increased myocardial ischemia/reperfusion injury”. For the same molecule, the “persistence of beneficial effects during long-term infusion” value [4] was “retains its beneficial effects during 3-4 hours of perfusion”.
In the case of `CC(C)N[N+]([O-])=N[O-].[Na+]` [IPA/NO, isopropylamine (IPA)/NO(Na(CH3)2CHNHN(O)NO)], the “cardiac load as measured by Edv (preload) and Ea (afterload)” value [1] is reported as “reduced the cardiac load” and the “cardiac contractility compared with Angeli's salt (Ees)” value ([1]; IPA/NO doses one-half to one-quarter those of Angeli's salt, nearly equivalent blood pressure decrease) is reported as “superior to those caused by the HNO/NO^− donating compound Angeli's salt; also recorded: exerted a stronger positive inotropic effect; also recorded: greater increase in cardiac contractility than Angeli's salt”.
In the case of `CC(C)NCC(O)COc1cccc2ccccc12` (stereo not drawn) [propranolol], the myocardial performance [5] is reported as “reduction in myocardial performance”.
With “calcitonin gene-related peptide8-37 (VTHRLAGLLSRSGGVVKNNFVPTNVGSKAF; ends and bridges not checked; UniProt P06881 90-119, looked up, fragment) [CGRP8-37]” the “inotropic effect as measured by Ees” value ([6]; CGRP8-37 alone) was “modest negative inotropic effect” and the “effect on the positive inotropic effect of Angeli's salt (Ees)” value ([6]; CGRP8-37 combined with Angeli's salt versus Angeli's salt alone) was “effectively prevented the HNO/NO^−-mediated, positive inotropic effect of Angeli's salt”.
